Laboratory results taken from patent US20240082238A1, “COMPOSITIONS AND METHODS FOR TREATING CANCER” (UNIVERSITY OF IOWA RESEARCH FOUNDATION, priority 2021, published 2024).

Legend:
cancer cell lines = assay: Cytotoxicity (MTS), CIP2b with checkpoint inhibitors; type: cell-based; settings: AZD7762 50 and 75 nM; MK1775 150 and 250 nM
Experimental: (§1) Cytotoxicity assay. Hec50co cells were seeded at 1500 cells per well in 96-well plates for 24 h in a complete medium. Later, the medium was removed and PTX, CIP2b, or CIP (all dissolved in DMSO and diluted in complete medium) were added to cells as either monotherapies or in combinations, and the plates were incubated for 72 hours. Then, the complete medium was removed and MTS reagent in the complete medium was added to wells, and the plates were incubated for 1-4 hours according to the manufacturer's protocol. Finally, the absorbance was recorded at 490 nm using a Spectra Max plus 384 Microplate Spectrophotometer (Molecular Devices, Sunnyvale, CA). Percentage cell viability was expressed as the average absorbance of the test group relative to that of the control group (untreated cells). The concentration that inhibits proliferation of 50% of cells compared to control (IC50) was calculated using GraphPad Prism (La Jolla, CA). Synergism was detected following the Chou-Talalay method (CI<1 indicates synergism) (Chou T C. Cancer research. 2010; 70(2):440-6, doi: 10.1158/0008-5472.CAN-09-1947) using CompuSyn software (Ver. 1.0).
Cytotoxicity was evaluated using the MTS assay described above.

human Topo I = biological target: T1, human Topo I (Homo sapiens, UniProt P11387); assay: Topoisomerase I inhibition assay (plasmid-based); type: biochemical; settings: drug final concentration 100 μM
T1 construct: purchased TopoGEN Inc. TG1015-1A
T1 sequence (P11387 1-765): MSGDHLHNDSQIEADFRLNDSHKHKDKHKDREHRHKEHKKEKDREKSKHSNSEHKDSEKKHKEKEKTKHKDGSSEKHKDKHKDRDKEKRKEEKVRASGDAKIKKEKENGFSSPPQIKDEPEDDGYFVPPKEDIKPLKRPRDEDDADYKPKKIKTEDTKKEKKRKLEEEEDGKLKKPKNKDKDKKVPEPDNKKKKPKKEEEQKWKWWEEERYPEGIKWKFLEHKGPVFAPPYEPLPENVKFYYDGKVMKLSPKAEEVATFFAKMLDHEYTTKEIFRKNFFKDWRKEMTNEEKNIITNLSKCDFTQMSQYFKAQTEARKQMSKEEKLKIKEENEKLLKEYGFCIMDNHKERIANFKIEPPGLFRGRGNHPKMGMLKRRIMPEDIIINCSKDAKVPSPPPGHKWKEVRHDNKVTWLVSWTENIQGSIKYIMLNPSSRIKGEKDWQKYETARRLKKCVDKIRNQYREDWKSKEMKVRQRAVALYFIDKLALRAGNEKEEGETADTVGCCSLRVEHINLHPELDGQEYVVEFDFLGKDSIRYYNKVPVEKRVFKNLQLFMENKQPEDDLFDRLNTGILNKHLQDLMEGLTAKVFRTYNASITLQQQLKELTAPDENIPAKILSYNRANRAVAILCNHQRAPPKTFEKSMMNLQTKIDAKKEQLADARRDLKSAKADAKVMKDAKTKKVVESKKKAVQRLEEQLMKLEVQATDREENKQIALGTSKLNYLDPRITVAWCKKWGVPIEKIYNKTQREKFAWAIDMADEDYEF
Experimental: Topoisomerase I inhibition assay. A plasmid-based Topo I assay (Cat. No. TG1015-1A, TopoGEN Inc., Buena Vista, CO) was performed according to the manufacturer's instructions. Briefly, 1 μL of the test compounds (PTX, CIP, CIP2b, or CAM) at a concentration of 2 mM, was mixed with 2 μL of the reaction buffer (10× tris-glycine-SDS), and deionized water was added to make 18 μL solution. This was followed by adding 1 μL of supercoiled DNA (SC DNA) and 1 μL of human Topo I (10 U/μL) (drug final concentration was 100 μM). Also, SC DNA±Topo I was used as a control (i.e., not containing drugs). In addition, relaxed DNA was added as another control in this assay. Samples were incubated on a heating block (Isotemp 125 D Digital Heat Block, ThermoFisher Scientific) set at 37° C. for 30 minutes. Then, the reaction was stopped by adding a 5× stop buffer. Samples were then loaded directly into the wells of a 1% agarose gel (Research Products International, Mount Prospect, IL). The gel was run at 150 V until the dye front had traveled approximately 5 cm (run time was approximately 2 hours). The gel was then stained with 1 μg/mL ethidium bromide in deionized water for 15 minutes, and this was followed by de-staining (washing) with deionized water for 30 min before imaging. The image was then taken using an Invitrogen iBright CL 1500 Imaging System (ThermoFisher Scientific). The intensity of the final bands in the gel was quantified using ImageJ, and the results are expressed as the percentage of Topo I inhibition.

Hec50co cells = assay: Cytotoxicity assay (MTS), Hec50co cells; type: cell-based, human; settings: 10 μM CIP added to PTX, 72 h
Experimental: as §1, with “1.0). […]” for “1.0).”

human Topo IIα = biological target: T2, human Topo IIα (Homo sapiens, UniProt P11388); assay: Topoisomerase II inhibition assay (plasmid-based); type: biochemical; settings: drug final concentration 100 μM; read-out: percentage of Topo II inhibition
T2 construct: purchased TopoGEN Inc. TG1001-1A
Experimental: Topoisomerase II inhibition assay. A plasmid-based Topo II assay (Cat. No. TG1001-1A, TopoGEN Inc., Buena Vista, CO) was performed according to the manufacturer's instructions. In this experiment, 1 μL of tested compounds (PTX, CIP, CIP2b, ETO) at a concentration of 2 mM was mixed with 4 μL of the reaction buffer (mixture of buffer A (0.5 M Tris-HCl (pH 8), 1.50 M NaCl, 100 mM MgCl2, 5 mM Dithiothreitol, 300 μg BSA/mL) and buffer B (10× ATP Buffer), and deionized water was added to make 18 μL solution. This was followed by adding 1 μL of catenated DNA and 1 μL of human Topo IIα (8 U/μL) (drug final concentration was 100 μM). Additionally, decatenated DNA (De-CT DNA) and catenated DNA (CT DNA)±Topo II were used as a control (i.e., not containing drugs). Moreover, relaxed DNA was added as another control in this assay. Similar to Topo I assay, samples were then incubated on a heating block set at 37° C. for 30 minutes. Then, the reaction was stopped by the addition of a 5× stop buffer. Samples were then loaded directly into the wells of a 1% agarose gel containing 1 μg/mL ethidium bromide. The gel was run at 150 V until the dye front had traveled approximately 5 cm (run time was approximately 2 h). The gel was then washed with deionized water for 30 minutes before imaging. The image was taken using an Invitrogen iBright CL1500 Imaging System. The intensity of the final bands in the gel was quantified using ImageJ, and the results are expressed as the percentage of Topo II inhibition.

[1] = tested on: advanced pancreatic ductal adenocarcinoma (PDAC); settings: patients with advanced PDAC; cited from earlier work

T2 sequence (P11388 whole entry): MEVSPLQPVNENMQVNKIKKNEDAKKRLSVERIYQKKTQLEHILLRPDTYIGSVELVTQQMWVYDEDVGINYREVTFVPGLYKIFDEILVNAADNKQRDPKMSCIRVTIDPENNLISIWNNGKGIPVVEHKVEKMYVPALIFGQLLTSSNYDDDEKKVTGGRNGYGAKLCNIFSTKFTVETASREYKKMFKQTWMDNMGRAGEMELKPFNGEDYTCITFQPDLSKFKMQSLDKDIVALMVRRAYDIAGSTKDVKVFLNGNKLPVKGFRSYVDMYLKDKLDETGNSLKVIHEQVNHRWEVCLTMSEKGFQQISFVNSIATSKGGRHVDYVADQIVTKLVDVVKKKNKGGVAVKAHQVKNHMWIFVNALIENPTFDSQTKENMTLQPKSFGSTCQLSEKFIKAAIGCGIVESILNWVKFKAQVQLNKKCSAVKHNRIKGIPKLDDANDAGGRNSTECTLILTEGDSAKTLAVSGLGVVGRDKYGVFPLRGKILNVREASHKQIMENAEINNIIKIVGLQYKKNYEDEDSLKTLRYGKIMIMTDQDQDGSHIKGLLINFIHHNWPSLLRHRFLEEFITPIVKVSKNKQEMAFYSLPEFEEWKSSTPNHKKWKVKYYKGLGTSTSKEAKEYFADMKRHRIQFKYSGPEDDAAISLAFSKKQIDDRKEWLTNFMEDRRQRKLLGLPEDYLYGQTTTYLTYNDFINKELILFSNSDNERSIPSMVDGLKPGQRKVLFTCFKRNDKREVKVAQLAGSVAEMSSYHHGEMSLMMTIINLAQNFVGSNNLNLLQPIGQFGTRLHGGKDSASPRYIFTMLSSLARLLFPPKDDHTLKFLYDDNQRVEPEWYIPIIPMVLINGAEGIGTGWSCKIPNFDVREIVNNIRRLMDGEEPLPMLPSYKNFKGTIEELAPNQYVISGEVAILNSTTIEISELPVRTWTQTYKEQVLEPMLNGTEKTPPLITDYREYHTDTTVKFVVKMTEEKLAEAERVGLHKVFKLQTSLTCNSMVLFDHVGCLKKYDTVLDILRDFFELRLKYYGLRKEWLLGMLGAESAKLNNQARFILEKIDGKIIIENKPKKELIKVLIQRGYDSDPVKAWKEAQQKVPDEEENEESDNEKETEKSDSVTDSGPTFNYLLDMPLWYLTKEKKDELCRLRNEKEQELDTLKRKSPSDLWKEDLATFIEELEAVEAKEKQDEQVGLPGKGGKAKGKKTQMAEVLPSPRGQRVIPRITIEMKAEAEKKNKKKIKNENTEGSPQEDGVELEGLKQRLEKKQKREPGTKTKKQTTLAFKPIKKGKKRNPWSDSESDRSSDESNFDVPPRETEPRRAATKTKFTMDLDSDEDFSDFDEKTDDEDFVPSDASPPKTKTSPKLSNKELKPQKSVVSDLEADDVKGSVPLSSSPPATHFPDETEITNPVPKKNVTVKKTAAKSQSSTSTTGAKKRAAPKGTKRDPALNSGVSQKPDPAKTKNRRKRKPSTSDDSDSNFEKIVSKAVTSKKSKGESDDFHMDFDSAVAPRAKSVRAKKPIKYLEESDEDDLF

Q: With `NC(=O)Nc1cc(-c2cccc(F)c2)sc1C(=O)N[C@H]1CCCNC1` [AZD7762] as the compound, how does the “potentiation or synergism in combination with CIP2b” value (cancer cell lines) read?
A: did not show any noticeable potentiation or synergism

Q: For `CC[C@@]1(O)C(=O)OCc2c1cc1n(c2=O)Cc2cc3ccccc3nc2-1` [CAM, camptothecin], which “Topo I inhibitory activity (gel)” value (human Topo I) is on record?
A: potent inhibitor of Topo I

Q: For `O=C(O)c1cn(C2CC2)c2cc(N3CCNCC3)c(F)cc2c1=O` [CIP, ciprofloxacin], which “survival curve of PTX with added compound vs PTX alone” value (Hec50co cells) is on record?
A: superimposed

Q: What about the inhibition at 100 µM (human Topo IIα) of the same compound?
A: 62%

Q: What about the “Topo I inhibitory activity (gel)” value (human Topo I) of the same compound?
A: neither PTX nor CIP did inhibit Topo I

Q: Which inhibition at 100 µM (human Topo IIα) does the source give for `COc1cc([C@@H]2c3cc4c(cc3[C@@H](O[C@@H]3O[C@@H]5CO[C@@H](C)O[C@H]5[C@H](O)[C@H]3O)[C@H]3COC(=O)[C@H]23)OCO4)cc(OC)c1O` [ETO, etoposide] here?
A: ~96%

Q: With `C=CCn1c(=O)c2cnc(Nc3ccc(N4CCN(C)CC4)cc3)nc2n1-c1cccc(C(C)(C)O)n1` [MK1775, adavosertib] as the compound, how does the “potentiation or synergism in combination with CIP2b” value (cancer cell lines) read?
A: did not show any noticeable potentiation or synergism

Q: Which median survival [1] does the source give for `Nc1ccn([C@@H]2O[C@H](CO)[C@@H](O)C2(F)F)c(=O)n1` [gemcitabine] here?
A: 6.7-6.8 months
